Laboratory results: ChEMBL document CHEMBL1145521, “Lenalidomide inhibits the malignant clone and up-regulates the SPARC gene mapping to the commonly deleted region in 5q- syndrome patients” (2007)
The source made the active and inactive calls. No cut-off for these calls is given here.

Experiments:
[1] = Down-regulation of THRB gene expression in healthy human erythroblasts after 7 days relative to control; type: functional
[2] = Upregulation of INHBA gene expression in healthy human erythroblasts after 7 days relative to control; type: functional
[3] = Down-regulation of HBBP1 gene expression in healthy human erythroblasts after 7 days relative to control; type: functional
[4] = Upregulation of CHI3L1 gene expression in erythroblasts from myelodysplastic syndrome del(5q) patient after 7 days relative to control; type: functional; settings: Homo sapiens
[5] = Down-regulation of THRB gene expression in erythroblasts from myelodysplastic syndrome del(5q) patient after 7 days relative to control; type: functional; settings: Homo sapiens
[6] = Down-regulation of SPTA1 gene expression in erythroblasts from myelodysplastic syndrome del(5q) patient after 7 days relative to control; type: functional; settings: Homo sapiens
[7] = Down-regulation of AMMECR1 gene expression in erythroblasts from myelodysplastic syndrome del(5q) patient after 7 days relative to control; type: functional; settings: Homo sapiens
[8] = Increase in SPARC gene expression in CD34- mononuclear cells from del(5q) myelodysplastic syndrome patient by RT-PCR after 7 days relative to control
[9] = Increase in activin A gene expression in CD34- mononuclear cells from del(5q) myelodysplastic syndrome patient by RT-PCR after 7 days relative to control
[10] = Upregulation of VSIG4 gene expression in erythroblasts from myelodysplastic syndrome del(5q) patient after 7 days relative to control; type: functional; settings: Homo sapiens
[11] = Upregulation of DSC2 gene expression in erythroblasts from myelodysplastic syndrome del(5q) patient after 7 days relative to control; type: functional; settings: Homo sapiens
[12] = Upregulation of RTN1 gene expression in healthy human erythroblasts after 7 days relative to control; type: functional
[13] = Down-regulation of AMMECR1 gene expression in healthy human erythroblasts after 7 days relative to control; type: functional
[14] = Upregulation of ANGPT2 gene expression in erythroblasts from myelodysplastic syndrome del(5q) patient after 7 days relative to control; type: functional; settings: Homo sapiens
[15] = Upregulation of CHI3L1 gene expression in healthy human erythroblasts after 7 days relative to control; type: functional
[16] = Down-regulation of TUBB2 gene expression in healthy human erythroblasts after 7 days relative to control; type: functional
[17] = Down-regulation of GYPA gene expression in erythroblasts from myelodysplastic syndrome del(5q) patient after 7 days relative to control; type: functional; settings: Homo sapiens
[18] = Down-regulation of CXADR gene expression in healthy human erythroblasts after 7 days relative to control; type: functional
[19] = Upregulation of CXCL1 gene expression in healthy human erythroblasts after 7 days relative to control; type: functional
Homo sapiens [20] = species on record: Homo sapiens; assay: Inhibition of cell proliferation of human bone marrow mononuclear cells assessed as [3H]thymidine incorporation upto 500 uM after 4 days; type: functional
[21] = Upregulation of PRG3 gene expression in erythroblasts from myelodysplastic syndrome del(5q) patient after 7 days relative to control; type: functional; settings: Homo sapiens
[22] = Decrease in erythroid differentiation of CD34+ progenitor cells from myelodysplastic syndrome del(5q) patient assessed as CD36 expression after 14 days; type: functional; settings: Homo sapiens
[23] = Down-regulation of HBG2 gene expression in erythroblasts from myelodysplastic syndrome del(5q) patient after 7 days relative to control; type: functional; settings: Homo sapiens
[24] = Down-regulation of GYPE gene expression in healthy human erythroblasts after 7 days relative to control; type: functional
[25] = Down-regulation of HBA1 gene expression in erythroblasts from myelodysplastic syndrome del(5q) patient after 7 days relative to control; type: functional; settings: Homo sapiens
[26] = Down-regulation of HBBP1 gene expression in erythroblasts from myelodysplastic syndrome del(5q) patient after 7 days relative to control; type: functional; settings: Homo sapiens
[27] = Increase in SPARC gene expression in erythroid progenitor cells from non-del(5q) myelodysplastic syndrome patient by RT-PCR after 7 days relative to control; type: functional, Homo sapiens
[28] = Upregulation of DSC2 gene expression in healthy human erythroblasts after 7 days relative to control; type: functional
[29] = Upregulation of VSIG4 gene expression in healthy human erythroblasts after 7 days relative to control; type: functional
[30] = Down-regulation of GYPB gene expression in erythroblasts from myelodysplastic syndrome del(5q) patient after 7 days relative to control; type: functional; settings: Homo sapiens
[31] = Upregulation of SEC14L5 gene expression in healthy human erythroblasts after 7 days relative to control; type: functional
[32] = Down-regulation of HBB gene expression in healthy human erythroblasts after 7 days relative to control; type: functional
[33] = Upregulation of CYP4F3 gene expression in erythroblasts from myelodysplastic syndrome del(5q) patient after 7 days relative to control; type: functional; settings: Homo sapiens
[34] = Increase in SPARC gene expression in CD34- mononuclear cells from del(5q) myelodysplastic syndrome patient by RT-PCR after 2 days relative to control
[35] = Upregulation of SPARC gene expression in erythroblasts from myelodysplastic syndrome del(5q) patient after 7 days relative to control; type: functional; settings: Homo sapiens
[36] = Upregulation of CYP4F3 gene expression in healthy human erythroblasts after 7 days relative to control; type: functional
[37] = Down-regulation of HBG2 gene expression in healthy human erythroblasts after 7 days relative to control; type: functional
[38] = Down-regulation of GYPB gene expression in healthy human erythroblasts after 7 days relative to control; type: functional
[39] = Down-regulation of GYPA gene expression in healthy human erythroblasts after 7 days relative to control; type: functional
[40] = Upregulation of RTN1 gene expression in erythroblasts from myelodysplastic syndrome del(5q) patient after 7 days relative to control; type: functional; settings: Homo sapiens
[41] = Upregulation of INHBA gene expression in erythroblasts from myelodysplastic syndrome del(5q) patient after 7 days relative to control; type: functional; settings: Homo sapiens
[42] = Down-regulation of KLF1 gene expression in healthy human erythroblasts after 7 days relative to control; type: functional
[43] = Growth inhibition of CD34- mononuclear cells from myelodysplastic syndrome del(5q-) patient by FISH after 7 days; type: functional, Homo sapiens
[44] = Upregulation of MAOA gene expression in erythroblasts from myelodysplastic syndrome del(5q) patient after 7 days relative to control; type: functional; settings: Homo sapiens
[45] = Upregulation of SPARC gene expression in healthy human erythroblasts after 7 days relative to control; type: functional
[46] = Upregulation of TPBG gene expression in erythroblasts from myelodysplastic syndrome del(5q) patient after 7 days relative to control; type: functional; settings: Homo sapiens
[47] = Upregulation of DEFA1 gene expression in healthy human erythroblasts after 7 days relative to control; type: functional
[48] = Upregulation of SEC14L5 gene expression in erythroblasts from myelodysplastic syndrome del(5q) patient after 7 days relative to control; type: functional; settings: Homo sapiens
[49] = Down-regulation of GYPE gene expression in erythroblasts from myelodysplastic syndrome del(5q) patient after 7 days relative to control; type: functional; settings: Homo sapiens
[50] = Upregulation of MAOA gene expression in healthy human erythroblasts after 7 days relative to control; type: functional
[51] = Down-regulation of HBB gene expression in erythroblasts from myelodysplastic syndrome del(5q) patient after 7 days relative to control; type: functional; settings: Homo sapiens
[52] = Upregulation of PRG3 gene expression in healthy human erythroblasts after 7 days relative to control; type: functional
[53] = Upregulation of ANGPT2 gene expression in healthy human erythroblasts after 7 days relative to control; type: functional
[54] = Upregulation of DEFA1 gene expression in erythroblasts from myelodysplastic syndrome del(5q) patient after 7 days relative to control; type: functional; settings: Homo sapiens
[55] = Down-regulation of LRP11 gene expression in healthy human erythroblasts after 7 days relative to control; type: functional
[56] = Down-regulation of HBA1 gene expression in healthy human erythroblasts after 7 days relative to control; type: functional
[57] = Decrease in erythroid differentiation of CD34+ progenitor cells from myelodysplastic syndrome del(5q) patient assessed as glycophorin A expression after 14 days; type: functional; settings: Homo sapiens
[58] = Down-regulation of ALAS2 gene expression in healthy human erythroblasts after 7 days relative to control; type: functional
[59] = Upregulation of PPIC gene expression in healthy human erythroblasts after 7 days relative to control; type: functional
[60] = Upregulation of TPBG gene expression in healthy human erythroblasts after 7 days relative to control; type: functional
[61] = Decrease in myeloid differentiation of CD34+ progenitor cells from myelodysplastic syndrome del(5q) patient assessed as CD33 expression after 14 days; type: functional; settings: Homo sapiens
[62] = Down-regulation of HBA2 gene expression in healthy human erythroblasts after 7 days relative to control; type: functional
[63] = Down-regulation of CXADR gene expression in erythroblasts from myelodysplastic syndrome del(5q) patient after 7 days relative to control; type: functional; settings: Homo sapiens
[64] = Upregulation of PPIC gene expression in erythroblasts from myelodysplastic syndrome del(5q) patient after 7 days relative to control; type: functional; settings: Homo sapiens
Homo sapiens [65] = species on record: Homo sapiens; assay: Inhibition of cell proliferation of CD34+ progenitor cells from myelodysplastic syndrome del(5q) patient after 14 days; type: functional
[66] = Down-regulation of ALAS2 gene expression in erythroblasts from myelodysplastic syndrome del(5q) patient after 7 days relative to control; type: functional; settings: Homo sapiens
[67] = Down-regulation of KLF1 gene expression in erythroblasts from myelodysplastic syndrome del(5q) patient after 7 days relative to control; type: functional; settings: Homo sapiens
[68] = Down-regulation of SPTA1 gene expression in healthy human erythroblasts after 7 days relative to control; type: functional
[69] = Increase in activin A gene expression in CD34- mononuclear cells from del(5q) myelodysplastic syndrome patient by RT-PCR after 2 days relative to control
[70] = Down-regulation of TUBB2 gene expression in erythroblasts from myelodysplastic syndrome del(5q) patient after 7 days relative to control; type: functional; settings: Homo sapiens
[71] = Increase in activin A gene expression in erythroid progenitor cells from non-del(5q) myelodysplastic syndrome patient by RT-PCR after 7 days relative to control; type: functional, Homo sapiens
[72] = Down-regulation of HBA2 gene expression in erythroblasts from myelodysplastic syndrome del(5q) patient after 7 days relative to control; type: functional; settings: Homo sapiens
Homo sapiens [73] = species on record: Homo sapiens; assay: Growth inhibition of CD34+ progenitor cells from non-del(5q) myelodysplastic syndrome patient after 14 days; type: functional
[74] = Down-regulation of LRP11 gene expression in erythroblasts from myelodysplastic syndrome del(5q) patient after 7 days relative to control; type: functional; settings: Homo sapiens
[75] = Upregulation of CXCL1 gene expression in erythroblasts from myelodysplastic syndrome del(5q) patient after 7 days relative to control; type: functional; settings: Homo sapiens

Nc1cccc2c1CN(C1CCC(=O)NC1=O)C2=O (stereo not given) [LENALIDOMIDE]
Fold change [1]: 2
Fold change [2]: 2.5
Fold change [3]: 2.8
Fold change [4]: 6.1
Fold change [5]: 2.8
Fold change [6]: 4.5
Fold change [7]: 2.9
Fold change [8]: 5.8
Fold change [9]: 2.6
Fold change [10]: 9.5
Fold change [11]: 3
Fold change [12]: 5.4
Fold change [13]: -3.2
Fold change [14]: 3.3
Fold change [15]: 10.3
Fold change [16]: 13.9
Fold change [17]: 3.7
Fold change [18]: 5.9
Fold change [19]: 2.9
Activity (Homo sapiens [20]): inactive
Fold change [21]: 2.9
Activity [22]: Active
Fold change [23]: -4.4
Fold change [24]: 2.2
Fold change [25]: 8.5
Fold change [26]: 4.9
Fold change [27]: 9.3
Fold change [28]: 3.6
Fold change [29]: 9.5
Fold change [30]: 3.6
Fold change [31]: 3.6
Fold change [32]: 3.4
Fold change [33]: 3.1
Fold change [34]: 8.1
Fold change [35]: 4.1
Fold change [36]: 3.5
Fold change [37]: -1.4
Fold change [38]: 2.9
Fold change [39]: 9.1
Fold change [40]: 3.5
Fold change [41]: 4.9
Fold change [42]: 3.4
growth inhibition (GI) [43]: 65%
Fold change [44]: 3.9
Fold change [45]: 4.8
Fold change [46]: 4.1
Fold change [47]: 16.3
Fold change [48]: 2.8
Fold change [49]: 3
Fold change [50]: 2.1
Fold change [51]: 7.7
Fold change [52]: 1.7
Fold change [53]: 1.9
Fold change [54]: 8.9
Fold change [55]: 4.8
Fold change [56]: 11.1
Activity [57]: Active
Fold change [58]: 7.6
Fold change [59]: 10.9
Fold change [60]: 5.4
Activity [61]: Active
Fold change [62]: 9.7
Fold change [63]: 3.6
Fold change [64]: 5.2
Activity (Homo sapiens [65]): Active
Fold change [66]: 3.3
Fold change [67]: 3.7
Fold change [68]: 4.8
Fold change [69]: 2.5
Fold change [70]: 8.2
Fold change [71]: 12.6
Fold change [72]: 11
Activity (Homo sapiens [73]): Active
Fold change [74]: 2.4
Fold change [75]: 4.1
